Data from patent US8414989B2, “Cyclodextrin compositions, articles, and methods” (Cellresin Technologies, LLC, priority 2011, dated 2013).

Tests used:
Type in all cases: physicochemical
[1] = Example 9: 1-MCP headspace release from UV-cured ink coated on PET film; conditions: 4 wt-% 1-MCP/c/α-CD UV ink on PET, 200 μL water
Method: ImTech UVBLK Series 912 cartridges were obtained from ImTech Inc. of Corvallis, Oreg. About 40 g of black ink was removed from the cartridge in which the ink was supplied. The ink was dried overnight in a closed container with 3 A molecular sieves to remove residual water contained in the ink. Then 17.5 g of the dried ink was transferred to a 70 mL roller mill jar filled with 50 g of 3 mm glass beads to which 0.875 g of 1-MCP/c/α-CD was added to the UV ink. The jar was sealed and rotated on a roller mill at 140 rpm for four hours. At the end of four hours of rolling to disperse the 1-MCP/c/α-CD, an additional 4.375 g of dry UV ink was added making a 4 wt-% 1-MCP/c/α-CD containing ink. Then the ink was decanted from the glass beads.
A rubber ink roller was used to coat a discontinuous, thin (nominally 3 μm), but uniform UV ink coating onto a 10 cm by 20 cm section of PET film (120 microns thick, obtained from the 3M Company of St. Paul, Minn.) in the manner described in Example 2. UV ink coated rectangles were passed by hand about 10 cm beneath a medium pressure mercury arc lamp operating at 79 watts per cm for 1.5 seconds exposure to the lamp. The cured sample was allowed to sit on a laboratory bench overnight ink side down.
A paper cutter was used to cut two samples, 20 cm^2 and 81 cm^2, from the cured ink coated PET film sheet. The samples were individually placed in 250 mL serum bottles. The bottles were then sealed with TEFLON® faced silicone septa. Then 200 μL of deionized water was injected into the bottle. […] After the injection of water into the bottle, 1-MCP was measured in the headspace using the analytical technique employed in Example 3.

[2] = Example 5: 1-MCP headspace release versus wt-% 1-MCP/c/α-CD and time; conditions: 5 cm x 10 cm, 250 mL bottle, water injected, average
Method: Using a razor blade, six 5 cm×10 cm rectangles were cut from the coated portions of 20 cm by 20 cm sheets prepared as in Example 3 and having 1.0 wt-%, 2.0 wt-% and 4.0 wt-% 1-MCP/c/α-CD, and the coated rectangles were cured according to the technique of Example 2. The rectangles were individually placed in 250 mL serum bottles. The bottles were sealed with TEFLON® faced silicone septa. Then […] of deionized water was injected into each bottle. […] Bottle headspace was analyzed at 4, 8, 24 and 48 hours after the injection of water, using the technique of Example 3. The results are provided in Table 4 and FIG. 4 and give the average headspace concentration and standard deviation for the different wt-% 1-MCP/c/α-CD coatings as a function of time.

[3] = Control Example A: dissociation of 1-MCP from supplied 1-MCP/c/α-CD powder as a function of added water; conditions: for Headspace concentration of 1-MCP: 0.1 g 1-MCP/c/α-CD powder, 250 mL bottle, shaken 1 hour, about 20 C
Method: A sample of 1-MCP/c/α-CD powder was obtained (AgroFresh of Spring House, Pa.). According to the supplier's specification sheet, 1-MCP was 4.7 wt % of α-CD or 88.7 wt % 1-MCP complex based on a theoretical 1:1 molar ratio of 1-MCP to α-CD; this corresponds to a resulting headspace concentration of 8,600 ppm. A series of tests were conducted to measure the dissociation of 1-MCP from the supplied 1-MCP/c/α-CD as a function of added water. First, 0.1 g aliquots of the supplied 1-MCP/c/α-CD powder were added to each of 5, 250 mL bottles, which were then capped with TEFLON® faced septa. Varying amounts of water were added to the bottles by syringe, and then the bottles were mechanically shaken for one hour, followed by headspace measurement for 1-MCP according to the procedure of Example 3. The amounts of water added per 0.1 g of the supplied 1-MCP/c/α-CD complex, and the resulting headspace measurements after 1 hour at about 20 C, are shown in Table 6.
A polynomial regression was used to calculate the dissociation at 100% RH in the headspace for the five samples of Table 6 (i.e., 4.3 milligrams water per 250 mL volume, see Example 8 for source and calculation of this information). The calculated amount of dissociated 1-MCP at 100% RH was 18 wt-%.

SMILES: CC1=CC1 [1-MCP, 1-methylcyclopropene]
- Headspace concentration of 1-MCP ([1]; 20 cm^2, 250 mL bottle, 0.5 hours): <0.01 ppm (v/v)
- Headspace concentration of 1-MCP ([1]; 20 cm^2, 250 mL bottle, 1 hour): <0.01 ppm (v/v)
- Headspace concentration of 1-MCP ([1]; 20 cm^2, 250 mL bottle, 2 hours): 0.01 ppm (v/v)
- Headspace concentration of 1-MCP ([1]; 20 cm^2, 250 mL bottle, 4 hours): 0.04 ppm (v/v)
- Headspace concentration of 1-MCP ([1]; 20 cm^2, 250 mL bottle, 8 hours): 0.05 ppm (v/v)
- Headspace concentration of 1-MCP ([1]; 20 cm^2, 250 mL bottle, 27 hours): 0.09 ppm (v/v)
- Headspace concentration of 1-MCP ([1]; 20 cm^2, 250 mL bottle, 170 hours): 0.76 ppm (v/v)
- Headspace concentration of 1-MCP ([1]; 81 cm^2, 250 mL bottle, 0.5 hours): <0.01 ppm (v/v)
- Headspace concentration of 1-MCP ([1]; 81 cm^2, 250 mL bottle, 1 hour): 0.05 ppm (v/v)
- Headspace concentration of 1-MCP ([1]; 81 cm^2, 250 mL bottle, 2 hours): 0.18 ppm (v/v)
- Headspace concentration of 1-MCP ([1]; 81 cm^2, 250 mL bottle, 21 hours): 0.51 ppm (v/v)
- Headspace concentration of 1-MCP ([1]; 81 cm^2, 250 mL bottle, 48 hours): 0.60 ppm (v/v)
- 1-MCP in Headspace ([2]; 1 wt-% 1-MCP/c/α-CD coated, 4 hours): 0.96 ppm-v/v
- 1-MCP in Headspace ([2]; 1 wt-% 1-MCP/c/α-CD coated, 8 hours): 2.0 ppm-v/v
- 1-MCP in Headspace ([2]; 1 wt-% 1-MCP/c/α-CD coated, 24 hours): 3.6 ppm-v/v
- 1-MCP in Headspace ([2]; 1 wt-% 1-MCP/c/α-CD coated, 48 hours): 4.0 ppm-v/v
- 1-MCP in Headspace ([2]; 2 wt-% 1-MCP/c/α-CD coated, 4 hours): 3.5 ppm-v/v
- 1-MCP in Headspace ([2]; 2 wt-% 1-MCP/c/α-CD coated, 8 hours): 7.8 ppm-v/v
- 1-MCP in Headspace ([2]; 2 wt-% 1-MCP/c/α-CD coated, 24 hours): 17.8 ppm-v/v
- 1-MCP in Headspace ([2]; 2 wt-% 1-MCP/c/α-CD coated, 48 hours): 21.2 ppm-v/v
- 1-MCP in Headspace ([2]; 4 wt-% 1-MCP/c/α-CD coated, 4 hours): 7.5 ppm-v/v
- 1-MCP in Headspace ([2]; 4 wt-% 1-MCP/c/α-CD coated, 8 hours): 13.5 ppm-v/v
- 1-MCP in Headspace ([2]; 4 wt-% 1-MCP/c/α-CD coated, 24 hours): 24.0 ppm-v/v
- 1-MCP in Headspace ([2]; 4 wt-% 1-MCP/c/α-CD coated, 48 hours): 28.0 ppm-v/v
- Headspace concentration of 1-MCP ([3]; 0.25 g H2O): 3,050 ppm (v/v)
- Headspace concentration of 1-MCP ([3]; 0.5 g H2O): 4,750 ppm (v/v)
- Headspace concentration of 1-MCP ([3]; 1.0 g H2O): 6,850 ppm (v/v)
- Headspace concentration of 1-MCP ([3]; 2.0 g H2O): 9,850 ppm (v/v)
- Headspace concentration of 1-MCP ([3]; 3.0 g H2O): 10,610 ppm (v/v)
- 1-MCP dissociated from complex ([3]; 1.0 grams of water per 0.10 grams 1-MCP/c/α-CD): 66%
- calculated amount of dissociated 1-MCP at 100% RH ([3]; polynomial regression of the five samples of Table 6, 4.3 milligrams water per 250 mL volume): 18 wt-%
- resulting headspace concentration corresponding to supplier's specification ([3]; supplier's specification sheet 4.7 wt % 1-MCP, 0.1 g in 250 mL bottle): 8,600 ppm
